Five compounds from patent US9540648B2, “Therapeutic use of activators of zinc finger protein GL13” (Universität Leipzig, priority 2012, dated 2017) can be followed below.

One series relates to mouse hepatocytes. Briefly: Cyclopamine: accumulation of neutral lipids in cultured mouse hepatocytes (Nile red staining). In kind it is cell-based. Particulars: 10 μM cyclopamine, 72 h. The procedure:
(§1) Cyclopamine (Sigma) was dissolved in DMSO (10 mM). Mouse and human hepatocytes were incubated for 72 h in the presence of 10 μM Cyclopamine. Control cultures were incubated with culture medium containing vehicle (0.1% DMSO).
(§2) Fluorescent staining of neutral lipids in hepatocytes was performed using Nile red (Biomol). Hepatocytes were fixed with 4% buffered paraformaldehyde for 10 min. For Nile red staining, a 200 nM working solution in phosphate-buffered saline (PBS) was prepared from a 1 mM stock solution in DMSO and was added directly to the fixed cells. After 20 min of incubation at room temperature cells were washed in PBS. Nuclei were counterstained with DAPI (Sigma).
(§3) Primary hepatocytes from SLC mice were isolated by collagenase perfusion of the liver. Cell suspension was carefully cleared from non-parenchymal cells by differential centrifugation. Finally, hepatocytes were suspended in Williams Medium E containing 10% fetal calf serum and further additions as described (Klingmüller et al., 2006), and were plated onto 6-well or 12-well plates precoated with collagen type I (Klingmüller et al., 2006; Gebhardt et al., 1982). After 4 h, serum-free medium was used throughout cultivation. Cryopreserved human hepatocytes were purchased from TebuBio (Offenbach, Germany). […]

Another series relates to human hepatocytes. Nature of the series: Cyclopamine: accumulation of neutral lipids in cultured human hepatocytes (Nile red staining). In kind it is cell-based. Particulars: 10 μM cyclopamine, 72 h. The protocol:
as §1, §2, §3

In series [1] the test system is C57Bl/6-N hepatocytes. Nature of the series: Oil red O staining of neutral lipids in cultured hepatocytes transfected with GLI siRNA. In kind it is cell-based, murine. Particulars: 72 h after siRNA transfection, FIG. 8. The protocol: FIG. 8 Staining of neutral lipids by Oil red O in cultured hepatocytes transfected with a) mock, b) GLI1 siRNA, c) GLI2 siRNA and d) GLI3 siRNA determined after 72 h.
(§4) Freshly isolated hepatocytes were seeded at a density of 100.000 cells per well of 12-well plates in normal culture medium containing 10% FCS. After 4 h, serum-free medium was used and chemically synthesized siRNAs ([…] for GLI2 and GLI3, 50 nM for GLI1) were transfected with Interferin from Peqlab (Erlangen) according to the manufacturer's instructions. Twenty-four hours after transfection, the medium was changed and fresh medium without siRNA was added. Changes in gene expression were analyzed by qRT PCR at different time points up to 72 h post-transfection as indicated in figure legends using primers as described above in Example 2 and the following additional primers: […]
On the contrary neither GLI1 siRNA (FIG. 8b) nor GLI2 siRNA (FIG. 8c) was capable of mediating this effect.

Series [2] has as its system C57Bl/6-N hepatocytes. Nature of the series: Silencing of GLI family members by siRNA in hepatocytes, gene expression by qRT-PCR. It counts as cell-based, murine. Particulars: for expression of lipogenic transcription factor Srebp1 (mRNA): FIG. 5.
Text: Total RNA from hepatocytes, liver tissue and other organs was extracted using TRIzol (Peqlab, Erlangen). Total RNA from adipose tissue was extracted using the RNeasy Lipid Tissue mini Kit (Quiagen, Hilden). RNA was reverse transcribed using oligo(dt) primers and IM Promm II reverse transcriptase (Promega). The resulting cDNA samples were then quantified for each test gene using target gene-specific primers designed using the online tools Universal ProbeLibrary Probe-Finder software, Perl Primer and Primer 3.
(§5) The levels of all mRNA transcripts were determined in duplicate by qRT-PCR using the Light Cycler® 2.0 Instrument and the LightCycler® FastStart DNA Master PLUS SYBR Green I (Roche). Using the standard curve method, the absolute quantitation of specific PCR products for each primer set was generated. For normalization, β-actin was amplified from each sample.
To analyze the role of GLI family members in C57Bl/6-N hepatocytes on gene expression, murine hepatocytes were isolated and cultured for 72 h upon transfection with siRNA silencing either GLI1, GLI2 or GLI3.
GLI1-, GLI2- and GLI3-specific siRNAs and respective scrambled control siRNAs were purchased from Invitrogen. The following double stranded siRNAs were used for inhibition of GLI1, GLI2 and GLI3:
as §4

In series [3] the test system is murine C57BL/6-N hepatocytes. Briefly: Silencing of Sufu by siRNA in hepatocytes, gene expression by real time PCR. It counts as cell-based. The procedure:
as §5, §4
Sufu is a known inhibitor of hedgehog signalling. The transfection of hepatocytes with siRNA and real time PCR was performed as described in Example 3. The following additional primers were used: […]

Take `CC1=C2C[C@H]3[C@@H](CC=C4C[C@@H](O)CC[C@@]43C)[C@@H]2CC[C@]12O[C@@H]1C[C@H](C)CN[C@H]1[C@H]2C` [cyclopamine, Cyclopamine]: the “steatosis (accumulation of neutral lipids)” value in the series with mouse hepatocytes and in the series on human hepatocytes was “marked steatosis” throughout.

Consider “GLI1 siRNA: double stranded siRNA for inhibition of GLI1, SEQ ID No. 1 and 2, purchased from Invitrogen (chain 1 UGGAGAACCUUAGGCUGGAUCAGCU; chain 2 AGCUGAUCCAGCCUAAGGUUCUCCA; listed as RNA, chemistry not given here)”, for which, in the series with C57Bl/6-N hepatocytes [1], the “accumulation of fat droplets (Oil red O staining of neutral lipids)” value (shortened to “accumulation of fat droplets”) was “comparable phenotype as wild type hepatocytes”. Further, the “expression of lipogenic transcription factor Srebp1 (mRNA)” value with C57Bl/6-N hepatocytes [2] (siRNA vs nonsense RNA control) is “not”.

“GLI2 siRNA: double stranded siRNA for inhibition of GLI2, SEQ ID No. 3 and 4, purchased from Invitrogen (chain 1 CCACAACCACAACGUUGCUCAGACA; chain 2 UGUCUGAGCAAGCUUGUGGUUGUGG; listed as RNA, chemistry not given here)”: the “accumulation of fat droplets” value in the series on C57Bl/6-N hepatocytes [1] is reported as “comparable phenotype as wild type hepatocytes”. Besides, the “expression of lipogenic transcription factor Srebp1 (mRNA)” value in the series on C57Bl/6-N hepatocytes [2] (siRNA vs nonsense RNA control) is given as “not”.

On to “GLI3 siRNA: double stranded siRNA for inhibition of GLI3, SEQ ID No. 5 and 6, purchased from Invitrogen (chain 1 UAGCAAGGCCAUCUUGGUCUUCAGG; chain 2 CCUGAAGACCAAGAUGGCCUUGCUA; listed as RNA, chemistry not given here)”, for which the “accumulation of fat droplets” value in the series with C57Bl/6-N hepatocytes [1] is “pronounced accumulation of fat droplets”. In addition, the “IGF1 mRNA” value in the series on C57Bl/6-N hepatocytes [2] (Gli siRNA, FIG. 23A) is given as “downregulates”. Besides, the “IGFBP1 mRNA” value with C57Bl/6-N hepatocytes [2] (Gli siRNA, FIG. 23B) is listed as “upregulated”. In addition, the “expression of lipogenic transcription factor PPAR-γ (mRNA)” value in the series on C57Bl/6-N hepatocytes [2] (siRNA vs nonsense RNA control, FIG. 4) was “significantly increased”. For the same compound, the “expression of lipogenic transcription factor Srebp1 (mRNA)” value in the series on C57Bl/6-N hepatocytes [2] (siRNA vs nonsense RNA control) is “significantly increased”. Further, the “expression of lipogenic enzyme ELOVL fatty acid elongase 6 (Elovl6)” value with C57Bl/6-N hepatocytes [2] (siRNA vs nonsense RNA control, FIG. 6) is “increased expression”. Moreover, in the series on C57Bl/6-N hepatocytes [2] (siRNA vs nonsense RNA control, FIG. 7), the “expression of lipogenic enzyme fatty acid synthase (Fasn)” value is listed as “increased expression”.

With “Sufu siRNA: double stranded siRNA inhibiting Sufu, SEQ ID No. 7 and 8; preferred GLI3 activating siRNA (chain 1 CCCUUGGACUAUGUUAGCAUGUACA; chain 2 UGUACAUGCUAACAUAGUCCAAGGG; listed as RNA, chemistry not given here)”, in series [3] (FIG. 9), the “expression of GLI2” value is “increased expression”, the “expression of GLI3” value is given as “increased expression”, the “expression of Indian hedgehog (IHH)” value is “increased expression” and the “silencing of Sufu” value is recorded as “Successful silencing”. In series [3] (FIG. 10), the “expression of GATA4” value is “increased expression”, the “hepatocellular expression of PPAR-γ” value is listed as “reduced” and the “hepatocellular expression of Srebp1” value is on record as “reduced”. Moreover, the “expression of Cyp17A1” value in series [3] (FIG. 19) is listed as “decreased expression”.
